# From patent US20200085789A1, “USE OF A PROTEASOME INHIBITOR FOR THE TREATMENT OF CENTRAL NERVOUS SYSTEM (CNS) CANCERS” (Celgene International II Sàrl, priority 2017, published 2020)
# Assay: Adverse events and dose-limiting toxicity (NCI-CTCAE v 4.03), MRZ ± BEV in recurrent grade IV malignant glioma patients
# Type: in vivo, human
# Excerpt: An adverse event (AE) is any noxious, unintended, or untoward medical occurrence that may appear or worsen in a subject during the course of a study. […] Any worsening (i.e., any clinically significant adverse change in the frequency or intensity of a pre-existing condition) should be considered an AE.
# The severity/intensity of AEs will be graded based upon the subject's symptoms according to the current active minor version of the Common Terminology Criteria for Adverse Events ( ).
# [1] = MRZ 0.7 mg/m^2 + BEV, Cohort 2 (N = 3)
# [2] = MRZ 0.8 mg/m^2 + BEV, Cohorts 3 & 4 (N = 27)
# [3] = MRZ 0.8 mg/m^2, + BEV N = 27, Monotherapy N = 30
# [4] = MRZ 0.8 mg/m^2 Monotherapy (N = 30)
structure (smiles),measurement,setting,value
"C[C@@]12OC(=O)[C@]1([C@@H](O)[C@@H]1C=CCCC1)NC(=O)[C@@H]2CCCl [MRZ, marizomib]","Grade ≥3 Ataxia related to the labelled drug, patients",[1],0
same,"Grade ≥3 Confusional State related to the labelled drug, patients",[1],0
same,"Grade ≥3 Delusion related to the labelled drug, patients",[1],0
same,"Grade ≥3 Dyspnea related to the labelled drug, patients",[1],0
same,"Grade ≥3 Embolism related to the labelled drug, patients",[1],0
same,"Grade ≥3 Fall related to the labelled drug, patients",[1],0
same,"Grade ≥3 Fatigue related to the labelled drug, patients",[1],0
same,"Grade ≥3 Hallucination related to the labelled drug, patients",[1],0
same,"Grade ≥3 Headache related to the labelled drug, patients",[1],0
same,"Grade ≥3 Hypertension related to the labelled drug, patients",[1],0
same,"Grade ≥3 Hyponatremia related to the labelled drug, patients",[1],0
same,"Grade ≥3 Insomnia related to the labelled drug, patients",[1],0
same,"Grade ≥3 Intracranial Hemorrhage related to the labelled drug, patients",[1],0
same,"Grade ≥3 Optic Nerve Disorder related to the labelled drug, patients",[1],0
same,"Grade ≥3 Proteinuria related to the labelled drug, patients",[1],0
same,"Grade ≥3 Ataxia related to the labelled drug, patients",[2],1
same,"Grade ≥3 Confusional State related to the labelled drug, patients",[2],0
same,"Grade ≥3 Delusion related to the labelled drug, patients",[2],1
same,"Grade ≥3 Dyspnea related to the labelled drug, patients",[2],1
same,"Grade ≥3 Embolism related to the labelled drug, patients",[2],0
same,"Grade ≥3 Fall related to the labelled drug, patients",[2],1
same,"Grade ≥3 Fatigue related to the labelled drug, patients",[2],1
same,"Grade ≥3 Hallucination related to the labelled drug, patients",[2],1
same,"Grade ≥3 Headache related to the labelled drug, patients",[2],3
same,"Grade ≥3 Hypertension related to the labelled drug, patients",[2],0
same,"Grade ≥3 Hyponatremia related to the labelled drug, patients",[2],1
same,"Grade ≥3 Insomnia related to the labelled drug, patients",[2],1
same,"Grade ≥3 Intracranial Hemorrhage related to the labelled drug, patients",[2],0
same,"Grade ≥3 Optic Nerve Disorder related to the labelled drug, patients",[2],0
same,"Grade ≥3 Proteinuria related to the labelled drug, patients",[2],0
same,Anaemia,[3],(20.0%)
same,"Anaemia, patients",[3],6
same,Ataxia,[3],(20.0%)
same,"Ataxia, patients",[3],6
same,Confusional state,[3],(23.3%)
same,"Confusional state, patients",[3],7
same,Constipation,[3],(30.0%)
same,"Constipation, patients",[3],9
same,Diarrhoea,[3],(23.3%)
same,"Diarrhoea, patients",[3],7
same,Dizziness,[3],(16.7%)
same,"Dizziness, patients",[3],5
same,Dysarthria,[3],(16.7%)
same,"Dysarthria, patients",[3],5
same,Dysphonia,[3],(3.3%)
same,"Dysphonia, patients",[3],1
same,Epistaxis,[3],(6.7%)
same,"Epistaxis, patients",[3],2
same,Fall,[3],(13.3%)
same,"Fall, patients",[3],4
same,Fatigue,[3],(63.3%)
same,"Fatigue, patients",[3],19
same,Hallucination,[3],(40.0%)
same,"Hallucination, patients",[3],12
same,Headache,[3],(40.0%)
same,"Headache, patients",[3],12
same,Hyperglycaemia,[3],(27.6%)
same,"Hyperglycaemia, patients",[3],8
same,Hypertension,[3],(13.3%)
same,"Hypertension, patients",[3],4
same,Hypokalemia,[3],(27.6%)
same,"Hypokalemia, patients",[3],8
same,Infusion site pain,[3],(10.0%)
same,"Infusion site pain, patients",[3],3
same,Insomnia,[3],(46.7%)
same,"Insomnia, patients",[3],14
same,Nausea,[3],(36.7%)
same,"Nausea, patients",[3],11
same,Platelet count decreased,[3],(23.3%)
same,"Platelet count decreased, patients",[3],7
same,Vomiting,[3],(30.0%)
same,"Vomiting, patients",[3],9
same,Anaemia MRZ Related,[4],(16.7%
same,"Anaemia MRZ Related, patients",[4],5
same,Ataxia MRZ Related,[4],(16.7%)
same,"Ataxia MRZ Related, patients",[4],5
same,Confusional state MRZ Related,[4],(20.0%)
same,"Confusional state MRZ Related, patients",[4],6
same,Constipation MRZ Related,[4],(20.0%)
same,"Constipation MRZ Related, patients",[4],6
same,Diarrhoea MRZ Related,[4],(23.3) %
same,"Diarrhoea MRZ Related, patients",[4],7
same,Dizziness MRZ Related,[4],(10.0%)
same,"Dizziness MRZ Related, patients",[4],3
same,"Dysphonia MRZ Related, patients",[4],0
same,Epistaxis MRZ Related,[4],(3.3%)
same,"Epistaxis MRZ Related, patients",[4],1
same,Fall MRZ Related,[4],(3.3%)
same,"Fall MRZ Related, patients",[4],1
same,Fatigue MRZ Related,[4],(60.0%)
same,"Fatigue MRZ Related, patients",[4],18
same,Hallucination MRZ Related,[4],(36.7%)
same,"Hallucination MRZ Related, patients",[4],11
same,Headache MRZ Related,[4],(36.7%)
same,"Headache MRZ Related, patients",[4],11
same,Hypertension MRZ Related,[4],93.3%)
same,"Hypertension MRZ Related, patients",[4],1
same,Infusion site pain MRZ Related,[4],(6.7%)
same,"Infusion site pain MRZ Related, patients",[4],2
same,"Muscular weakness MRZ Related, patients",[4],0
same,Nausea MRZ Related,[4],(30.0%)
same,"Nausea MRZ Related, patients",[4],9
same,"Platelet count decreased MRZ Related, patients",[4],0
same,"Stomatitis MRZ Related, patients",[4],0
same,"Upper-airway cough syndrome MRZ Related, patients",[4],0
same,Vomiting MRZ Related,[4],(23.3) %
same,"Vomiting MRZ Related, patients",[4],7
same,"Anemia: patients, Total","Part 1 N = 36, Part 2 N = 30",6
same,"Anemia: patients, worst Grade 1","Part 1 N = 36, Part 2 N = 30",5
same,"Anemia: patients, worst Grade 2","Part 1 N = 36, Part 2 N = 30",1
same,"Ataxia: patients, Total","Part 1 N = 36, Part 2 N = 30",8
same,"Ataxia: patients, worst Grade 1","Part 1 N = 36, Part 2 N = 30",3
same,"Ataxia: patients, worst Grade 2","Part 1 N = 36, Part 2 N = 30",5
same,"Confusional State: patients, Total","Part 1 N = 36, Part 2 N = 30",7
same,"Confusional State: patients, worst Grade 1","Part 1 N = 36, Part 2 N = 30",3
same,"Confusional State: patients, worst Grade 2","Part 1 N = 36, Part 2 N = 30",4
same,"Constipation: patients, Total","Part 1 N = 36, Part 2 N = 30",10
same,"Constipation: patients, worst Grade 1","Part 1 N = 36, Part 2 N = 30",10
same,"Diarrhea: patients, Total","Part 1 N = 36, Part 2 N = 30",7
same,"Diarrhea: patients, worst Grade 1","Part 1 N = 36, Part 2 N = 30",6
same,"Diarrhea: patients, worst Grade 3","Part 1 N = 36, Part 2 N = 30",1
same,"Dizziness: patients, Total","Part 1 N = 36, Part 2 N = 30",5
same,"Dizziness: patients, worst Grade 1","Part 1 N = 36, Part 2 N = 30",4
same,"Dizziness: patients, worst Grade 2","Part 1 N = 36, Part 2 N = 30",1
same,"Dysphonia: patients, Total","Part 1 N = 36, Part 2 N = 30",1
same,"Dysphonia: patients, worst Grade 1","Part 1 N = 36, Part 2 N = 30",1
same,"Epistaxis: patients, Total","Part 1 N = 36, Part 2 N = 30",2
same,"Epistaxis: patients, worst Grade 1","Part 1 N = 36, Part 2 N = 30",2
same,"Fall: patients, Total","Part 1 N = 36, Part 2 N = 30",4
same,"Fall: patients, worst Grade 1","Part 1 N = 36, Part 2 N = 30",3
